Target: Potassium voltage-gated channel subfamily KQT member 1 (Homo sapiens) (UniProt P51787)
Test: PubChem AID 602120
Settings: KCNQ1-CHO cells, manual whole-cell patch clamp current; at 0.3 µM; stronger effect = higher value

Chain of Potassium voltage-gated channel subfamily KQT member 1 (Homo sapiens) (P51787 whole entry, looked up): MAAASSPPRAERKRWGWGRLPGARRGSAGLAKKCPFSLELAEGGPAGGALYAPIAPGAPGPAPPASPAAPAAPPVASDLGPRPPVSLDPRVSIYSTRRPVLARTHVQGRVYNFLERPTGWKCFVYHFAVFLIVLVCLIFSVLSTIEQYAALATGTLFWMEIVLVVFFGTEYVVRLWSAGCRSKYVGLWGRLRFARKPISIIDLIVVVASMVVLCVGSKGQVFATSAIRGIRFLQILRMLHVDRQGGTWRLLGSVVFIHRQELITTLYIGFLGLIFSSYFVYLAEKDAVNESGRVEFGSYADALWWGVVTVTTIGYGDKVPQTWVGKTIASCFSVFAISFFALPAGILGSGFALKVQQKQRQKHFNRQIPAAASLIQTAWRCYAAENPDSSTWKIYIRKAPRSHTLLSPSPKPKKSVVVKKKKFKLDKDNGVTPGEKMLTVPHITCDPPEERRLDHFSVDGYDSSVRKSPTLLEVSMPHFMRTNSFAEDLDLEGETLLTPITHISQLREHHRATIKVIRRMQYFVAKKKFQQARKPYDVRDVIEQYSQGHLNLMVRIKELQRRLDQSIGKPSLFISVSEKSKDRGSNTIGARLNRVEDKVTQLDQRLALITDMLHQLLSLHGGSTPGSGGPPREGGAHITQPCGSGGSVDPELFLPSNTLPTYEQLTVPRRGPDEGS

fold activation: 46.9
Structure (SMILES): COc1ccc(-c2csc(NC(=O)[C@H]3CCCCN3S(=O)(=O)c3ccc(C)cc3)n2)cc1

Source: PubChem BioAssay AID602120 (Johns Hopkins Ion Channel Center, 2011)
